For three sequences, Cytotoxicity results are on record in US20070060508A1, “Binding molecules” (priority 2002, published 2007).

Ends that are not written are not given here.

The test system of the data set is Daudi cells. Nature of the data set: Cytotoxicity test: NK effector cells (YT) incubated with tumor target cells (Daudi) plus test peptide, LDH release. It counts as cell-based. The following applies: YT and Daudi cells 1:10, 16 h. The procedure:
For the cytotoxicity measurement, NK cells, which specifically kill tumor cells, as effector cells were incubated with tumor cells as target cells in the presence of the test peptides. The cytotoxicity measurement was performed by measuring the release of lactate dehydrogenase (LDH) according to the standard protocol by a cytotoxicity test kit (Promega, Germany) and in a microwell plate reader. As NK cells (E), YT cells (DSMZ, Germany) were used. As target cells (T), Daudi cells (DSMZ, Germany) were used. YT and Daudi cells were seeded in microwell plates at a ratio of 1:10 and incubated in the presence of 0.3, 3, 30:M test peptide for 16 h.
On the next day, 10:l of lysis buffer each were added to the cells and the cells were incubated for additional 2 h. Subsequently, 5:l of the agent were transferred into a second microwell plate and combined with 50:l of substrate buffer. After a 30 min incubation, the reaction was terminated by 50:l of stop solution and the absorption of the formed MTT color complex was measured in a microwell plate reader.

With “APTSSSTKKTQLQLEHFLLDFQMILNGINN [Sequence 2, APTSSSTKKT QLQLEHFLLD FQMILNGINN]”, the Cytotoxicity is, setting by setting: (0.3:M test peptide) 30%; (3:M test peptide) 80%; (30:M test peptide) 10%.
“APTSSSTKKTQLQLEHFLMKFQMILNGINN [Sequence 3, APTSSSTKKT QLQLEHFLMK FQMILNGINN]”: the Cytotoxicity (0.3:M test peptide) is on record as 0%, the Cytotoxicity (3:M test peptide) came out at 20% and the Cytotoxicity (30:M test peptide) came out at 0%.
In the case of “APTSSSTKKTQLQLEHLLLKLQMILNGINN [Sequence 1, APTSSSTKKT QLQLEHLLLK LQMILNGINN]”, the Cytotoxicity (0.3:M test peptide) came to 30%, the Cytotoxicity (3:M test peptide) is recorded as 30% and the Cytotoxicity (30:M test peptide) was 30%.
